Values of other authors, collected in patent publication US11285148B1 (King Abdulaziz University, priority 2021, dated 2022).

System: yeast isolates obtained from cases of keratitis

For `CC(=O)N1CCN(c2ccc(OCC3COC(Cn4ccnc4)(c4ccc(Cl)cc4Cl)O3)cc2)CC1` (stereo not shown) [KET, Ketoconazole], the Minimum inhibitory concentration is listed as 0.015 to 0.125 µg/mL.
